Measured values as given in ChEMBL document CHEMBL4706643 (J Med Chem, 2021).

System: Hepatitis B virus
Experiment: Antiviral activity against HBV infected in human HepG2-NTCP cells assessed as reduction in HBeAg secretion cells inoculated with virus for 4 hrs at room temperature and 37 degree C for 24 hrs followed inoculum changed with PMM medium for every 2 days until day 5 post infection by ELISA
Format: functional, organism-based

Row | IC50 [nM] | SMILES
1 | 197 | CC[C@@H]1NC(=O)[C@H]([C@@H]2O[C@@H](Sc3cccc(OCc4cccc(F)c4)c3)C[C@H]2C)N(C)C(=O)[C@H](C(C)C)N(C)C(=O)[C@H](CC(C)C)N(C)C(=O)[C@H](CC(C)C)N(C)C(=O)[C@@H](C)NC(=O)[C@H](C)NC(=O)[C@H](CC(C)C)N(C)C(=O)[C@H](C(C)C)NC(=O)[C@H](CC(C)C)N(C)C(=O)CN(C)C1=O
2 | 216 | CC[C@@H]1NC(=O)[C@H]([C@@H]2O[C@@H](Sc3cc(OC)cc(OCc4ccc(F)cc4)c3)C[C@H]2C)N(C)C(=O)[C@H](C(C)C)N(C)C(=O)[C@H](CC(C)C)N(C)C(=O)[C@H](CC(C)C)N(C)C(=O)[C@@H](C)NC(=O)[C@H](C)NC(=O)[C@H](CC(C)C)N(C)C(=O)[C@H](C(C)C)NC(=O)[C@H](CC(C)C)N(C)C(=O)CN(C)C1=O
3 | 1650 | CC[C@@H]1NC(=O)[C@H]([C@@H]2O[C@@H](Sc3cccc(O)c3)C[C@H]2C)N(C)C(=O)[C@H](C(C)C)N(C)C(=O)[C@H](CC(C)C)N(C)C(=O)[C@H](CC(C)C)N(C)C(=O)[C@@H](C)NC(=O)[C@H](C)NC(=O)[C@H](CC(C)C)N(C)C(=O)[C@H](C(C)C)NC(=O)[C@H](CC(C)C)N(C)C(=O)CN(C)C1=O
4 | 480 | CC[C@@H]1NC(=O)[C@H]([C@@H]2O[C@@H](Sc3cccc(OCc4ccc(=O)n(C)c4)c3)C[C@H]2C)N(C)C(=O)[C@H](C(C)C)N(C)C(=O)[C@H](CC(C)C)N(C)C(=O)[C@H](CC(C)C)N(C)C(=O)[C@@H](C)NC(=O)[C@H](C)NC(=O)[C@H](CC(C)C)N(C)C(=O)[C@H](C(C)C)NC(=O)[C@H](CC(C)C)N(C)C(=O)CN(C)C1=O
5 | 215 | CC[C@@H]1NC(=O)[C@H]([C@@H]2O[C@@H](Sc3ccc(Cl)c(OCc4ccccc4)c3)C[C@H]2C)N(C)C(=O)[C@H](C(C)C)N(C)C(=O)[C@H](CC(C)C)N(C)C(=O)[C@H](CC(C)C)N(C)C(=O)[C@@H](C)NC(=O)[C@H](C)NC(=O)[C@H](CC(C)C)N(C)C(=O)[C@H](C(C)C)NC(=O)[C@H](CC(C)C)N(C)C(=O)CN(C)C1=O
6 | 344 | CC[C@@H]1NC(=O)[C@H]([C@@H]2O[C@@H](Oc3cccc(OCc4ccccc4)c3)C[C@H]2C)N(C)C(=O)[C@H](C(C)C)N(C)C(=O)[C@H](CC(C)C)N(C)C(=O)[C@H](CC(C)C)N(C)C(=O)[C@@H](C)NC(=O)[C@H](C)NC(=O)[C@H](CC(C)C)N(C)C(=O)[C@H](C(C)C)NC(=O)[C@H](CC(C)C)N(C)C(=O)CN(C)C1=O
7 | 346 | CC[C@@H]1NC(=O)[C@H]([C@@H]2O[C@@H](Sc3ccc(OC)c(OC)c3)C[C@H]2C)N(C)C(=O)[C@H](C(C)C)N(C)C(=O)[C@H](CC(C)C)N(C)C(=O)[C@H](CC(C)C)N(C)C(=O)[C@@H](C)NC(=O)[C@H](C)NC(=O)[C@H](CC(C)C)N(C)C(=O)[C@H](C(C)C)NC(=O)[C@H](CC(C)C)N(C)C(=O)CN(C)C1=O
8 | 1540 | CC[C@@H]1NC(=O)[C@H]([C@@H]2O[C@@H](Sc3ccc(CN4CCN(C)CC4)cc3)C[C@H]2C)N(C)C(=O)[C@H](C(C)C)N(C)C(=O)[C@H](CC(C)C)N(C)C(=O)[C@H](CC(C)C)N(C)C(=O)[C@@H](C)NC(=O)[C@H](C)NC(=O)[C@H](CC(C)C)N(C)C(=O)[C@H](C(C)C)NC(=O)[C@H](CC(C)C)N(C)C(=O)CN(C)C1=O
9 | 206 | CC[C@@H]1NC(=O)[C@H]([C@@H]2O[C@@H](Sc3cccc(N(C)CC)c3)C[C@H]2C)N(C)C(=O)[C@H](C(C)C)N(C)C(=O)[C@H](CC(C)C)N(C)C(=O)[C@H](CC(C)C)N(C)C(=O)[C@@H](C)NC(=O)[C@H](C)NC(=O)[C@H](CC(C)C)N(C)C(=O)[C@H](C(C)C)NC(=O)[C@H](CC(C)C)N(C)C(=O)CN(C)C1=O
10 | > 10000 | C=C(C)C1C[C@@H](C)[C@H]([C@H]2C(=O)N[C@@H](CC)C(=O)N(C)CC(=O)N(C)[C@@H](CC(C)C)C(=O)N[C@@H](C(C)C)C(=O)N(C)[C@@H](CC(C)C)C(=O)N[C@@H](C)C(=O)N[C@H](C)C(=O)N(C)[C@@H](CC(C)C)C(=O)N(C)[C@@H](CC(C)C)C(=O)N(C)[C@@H](C(C)C)C(=O)N2C)O1 (stereo not given in full)
11 | 281 | CC[C@@H]1NC(=O)[C@H]([C@@H]2O[C@@H](Sc3ccc(C)cc3)C[C@H]2C)N(C)C(=O)[C@H](C(C)C)N(C)C(=O)[C@H](CC(C)C)N(C)C(=O)[C@H](CC(C)C)N(C)C(=O)[C@@H](C)NC(=O)[C@H](C)NC(=O)[C@H](CC(C)C)N(C)C(=O)[C@H](C(C)C)NC(=O)[C@H](CC(C)C)N(C)C(=O)CN(C)C1=O
12 | 1270 | CC[C@@H]1NC(=O)[C@H]([C@@H]2O[C@@H](Sc3ccc(N4CCOCC4)cc3)C[C@H]2C)N(C)C(=O)[C@H](C(C)C)N(C)C(=O)[C@H](CC(C)C)N(C)C(=O)[C@H](CC(C)C)N(C)C(=O)[C@@H](C)NC(=O)[C@H](C)NC(=O)[C@H](CC(C)C)N(C)C(=O)[C@H](C(C)C)NC(=O)[C@H](CC(C)C)N(C)C(=O)CN(C)C1=O
13 | 5330 | CC[C@@H]1NC(=O)[C@H]([C@@H]2O[C@H](Sc3ccccc3)C[C@H]2C)N(C)C(=O)[C@H](C(C)C)N(C)C(=O)[C@H](CC(C)C)N(C)C(=O)[C@H](CC(C)C)N(C)C(=O)[C@@H](C)NC(=O)[C@H](C)NC(=O)[C@H](CC(C)C)N(C)C(=O)[C@H](C(C)C)NC(=O)[C@H](CC(C)C)N(C)C(=O)CN(C)C1=O
14 | 382 | CC[C@@H]1NC(=O)[C@H]([C@@H]2O[C@@H](Sc3cccc(OCc4ccncc4)c3)C[C@H]2C)N(C)C(=O)[C@H](C(C)C)N(C)C(=O)[C@H](CC(C)C)N(C)C(=O)[C@H](CC(C)C)N(C)C(=O)[C@@H](C)NC(=O)[C@H](C)NC(=O)[C@H](CC(C)C)N(C)C(=O)[C@H](C(C)C)NC(=O)[C@H](CC(C)C)N(C)C(=O)CN(C)C1=O
15 | 256 | CC[C@@H]1NC(=O)[C@H]([C@@H]2O[C@@H](Sc3ccc(OCc4ccccc4)cc3)C[C@H]2C)N(C)C(=O)[C@H](C(C)C)N(C)C(=O)[C@H](CC(C)C)N(C)C(=O)[C@H](CC(C)C)N(C)C(=O)[C@@H](C)NC(=O)[C@H](C)NC(=O)[C@H](CC(C)C)N(C)C(=O)[C@H](C(C)C)NC(=O)[C@H](CC(C)C)N(C)C(=O)CN(C)C1=O
16 | > 10000 | CC[C@@H]1NC(=O)[C@H]([C@@H]2OC(OCC(=O)OC)C[C@H]2C)N(C)C(=O)[C@H](C(C)C)N(C)C(=O)[C@H](CC(C)C)N(C)C(=O)[C@H](CC(C)C)N(C)C(=O)[C@@H](C)NC(=O)[C@H](C)NC(=O)[C@H](CC(C)C)N(C)C(=O)[C@H](C(C)C)NC(=O)[C@H](CC(C)C)N(C)C(=O)CN(C)C1=O (stereo not given in full)
17 | 13500 | CC[C@@H]1NC(=O)[C@H]([C@@H]2OC(OC)C[C@H]2C)N(C)C(=O)[C@H](C(C)C)N(C)C(=O)[C@H](CC(C)C)N(C)C(=O)[C@H](CC(C)C)N(C)C(=O)[C@@H](C)NC(=O)[C@H](C)NC(=O)[C@H](CC(C)C)N(C)C(=O)[C@H](C(C)C)NC(=O)[C@H](CC(C)C)N(C)C(=O)CN(C)C1=O (stereo not given in full)
18 | 11900 | CC[C@@H]1NC(=O)C([C@@H]2OC(O)C[C@H]2C)N(C)C(=O)[C@H](C(C)C)N(C)C(=O)[C@H](CC(C)C)N(C)C(=O)[C@H](CC(C)C)N(C)C(=O)[C@@H](C)NC(=O)[C@H](C)NC(=O)[C@H](CC(C)C)N(C)C(=O)[C@H](C(C)C)NC(=O)[C@H](CC(C)C)N(C)C(=O)CN(C)C1=O (stereo not given in full)
19 | > 10000 | CC[C@@H]1NC(=O)[C@H]([C@@H]2OCC[C@H]2C)N(C)C(=O)[C@H](C(C)C)N(C)C(=O)[C@H](CC(C)C)N(C)C(=O)[C@H](CC(C)C)N(C)C(=O)[C@@H](C)NC(=O)[C@H](C)NC(=O)[C@H](CC(C)C)N(C)C(=O)[C@H](C(C)C)NC(=O)[C@H](CC(C)C)N(C)C(=O)CN(C)C1=O
20 | 354 | CC[C@@H]1NC(=O)[C@H]([C@@H]2O[C@@H](Sc3cccc(OCCc4ccccc4)c3)C[C@H]2C)N(C)C(=O)[C@H](C(C)C)N(C)C(=O)[C@H](CC(C)C)N(C)C(=O)[C@H](CC(C)C)N(C)C(=O)[C@@H](C)NC(=O)[C@H](C)NC(=O)[C@H](CC(C)C)N(C)C(=O)[C@H](C(C)C)NC(=O)[C@H](CC(C)C)N(C)C(=O)CN(C)C1=O
21 | 681 | CC[C@@H]1NC(=O)[C@H]([C@@H]2O[C@H](Oc3cccc(OCc4ccccc4)c3)C[C@H]2C)N(C)C(=O)[C@H](C(C)C)N(C)C(=O)[C@H](CC(C)C)N(C)C(=O)[C@H](CC(C)C)N(C)C(=O)[C@@H](C)NC(=O)[C@H](C)NC(=O)[C@H](CC(C)C)N(C)C(=O)[C@H](C(C)C)NC(=O)[C@H](CC(C)C)N(C)C(=O)CN(C)C1=O
22 | 1200 | CC[C@@H]1NC(=O)[C@H]([C@@H]2O[C@@H](Sc3cccc(NC)c3)C[C@H]2C)N(C)C(=O)[C@H](C(C)C)N(C)C(=O)[C@H](CC(C)C)N(C)C(=O)[C@H](CC(C)C)N(C)C(=O)[C@@H](C)NC(=O)[C@H](C)NC(=O)[C@H](CC(C)C)N(C)C(=O)[C@H](C(C)C)NC(=O)[C@H](CC(C)C)N(C)C(=O)CN(C)C1=O
23 | 249 | CC[C@@H]1NC(=O)[C@H]([C@@H]2O[C@@H](Sc3cccc(OCC4CCOCC4)c3)C[C@H]2C)N(C)C(=O)[C@H](C(C)C)N(C)C(=O)[C@H](CC(C)C)N(C)C(=O)[C@H](CC(C)C)N(C)C(=O)[C@@H](C)NC(=O)[C@H](C)NC(=O)[C@H](CC(C)C)N(C)C(=O)[C@H](C(C)C)NC(=O)[C@H](CC(C)C)N(C)C(=O)CN(C)C1=O
24 | 2170 | CC[C@@H]1NC(=O)[C@H]([C@@H]2O[C@@H](Sc3c(OC)cccc3OC)C[C@H]2C)N(C)C(=O)[C@H](C(C)C)N(C)C(=O)[C@H](CC(C)C)N(C)C(=O)[C@H](CC(C)C)N(C)C(=O)[C@@H](C)NC(=O)[C@H](C)NC(=O)[C@H](CC(C)C)N(C)C(=O)[C@H](C(C)C)NC(=O)[C@H](CC(C)C)N(C)C(=O)CN(C)C1=O

Row | SMILES | IC50 [nM]
25 | CCCOc1cccc(S[C@H]2C[C@@H](C)[C@H]([C@H]3C(=O)N[C@@H](CC)C(=O)N(C)CC(=O)N(C)[C@@H](CC(C)C)C(=O)N[C@@H](C(C)C)C(=O)N(C)[C@@H](CC(C)C)C(=O)N[C@@H](C)C(=O)N[C@H](C)C(=O)N(C)[C@@H](CC(C)C)C(=O)N(C)[C@@H](CC(C)C)C(=O)N(C)[C@@H](C(C)C)C(=O)N3C)O2)c1 | 223
